Measurements as given in patent US9144595B2, “APLs for treating arthritis” (University of Tennessee Research Foundation, priority 2009, dated 2015).

Key:
[1] = tested on: murine models of oral tolerance; test: Murine models of oral tolerance; details: mouse, in vivo
Text: A form of CII based therapy has been tried in patients with RA and juvenile RA by administering intact native chick or bovine CII to patients. Seven trials of treatment with oral CII have been reported including two of our own. […] Most patients in these studies also received NSAIDs which block oral tolerance and systemic tolerance. The use of NSAIDS might have been responsible for the mixed results of oral CII in RA. […] Furthermore, we have applied these crucial data in designing oral tolerance trials in humans. We can down regulate with oral CII, PBMC production of IFNγ to α1(II) in RA patients who take NSAIDS plus misoprostol and/or DMARDS and anti-TNFα therapies. Oral administration of low dose antigen generates regulatory T cells, which act in the respective microenvironment in a non-antigen specific manner by producing down-regulatory cytokines such as IL4, IL10 and TGFbeta, a Th2/Th3 cytokine pattern.

patients with RA = details: cited from earlier work
[2] = tested on: splenocytes of DR1 transgenic mice; test: Oral APL A12: IFNγ production by cultured splenocytes of DR1 transgenic mice; format: in vivo, mouse
[3] = tested on: Peyer's Patch cells of DR1 TCRtg+/+ mice; test: Oral APL A12: IL-17 and IL-10 in cultures of Peyer's Patch cells of DR1 TCRtg+/+ mice; format: in vivo, mouse
[4] = tested on: patients with recent onset of type 1 diabetes mellitus; details: IFNγ and IL-5 ELISPOT, weeks 0-26; cited from earlier work
DR1 Transgenic mice = test: Effect of A12 on CIA in DR1 Transgenic mice (CII plus A12; intravenous A12 after CII-immunization); format: in vivo, mouse
Protocol: Assuming that CII263-270 was key to developing immunity to the intact CII molecule, a number of analog peptides where amino acids within this small segment were substituted with those found in the corresponding sites of nonarthritogenic type I collagen were prepared and tested. […] The APL A12 developed for this study has the following amino acid sequence: LGPKGQTGEBG[IAGNKGDQGPK]GEBGPA (SEQ ID NO: 3) where B=hydroxproline. The core determinant of human CII263-270 is bracketed. The underlined residues are those substituted to produce APL A12. The residues amino terminal and carboxy terminal to the core determinant is from the normal human CII sequence.

[5] = mice gavaged with 50 μg CII263-270 9 times over 2 weeks, cells cultured with PBS
[6] = mice gavaged with 50 μg CII263-270, cells cultured with APL A12 50 μg/ml
[7] = mice gavaged with 50 μg CII263-270, cells cultured with CII263-270 50 μg/ml
[8] = mice gavaged with PBS, cells cultured with CII263-270 50 μg/ml

## etanercept
[1]
  oral tolerance induction: do not block oral tolerance induction

## [O]QKRAAYDQ[U]YGHAAFE (QKRAAYDQYGHAAFE; Synthetic peptide dnaJP1) [synthetic peptide derived from bacterial heat shock protein]
Patients with RA; CD3+ cells, oral, six months
  cytokine profile: switch in the cytokine profile from Th1 to Th2
Patients with RA; oral 0.25, 2.5 and 25 mg per day for six months
  tolerability: well tolerated and no significant side effects occurred
Patients with RA; oral, six months
  worsening of arthritis: no worsening of arthritis

## FKGEQGPK [CII263-270, reference compound]
[2]; mice gavaged with 50 μg CII263-270 8 times over 2 weeks, splenocytes cultured with PBS
  IFNγ Levels in Splenocyte Culture: 68 ± 85 pg/mL
[2]; mice gavaged with 50 μg CII263-270, splenocytes cultured with APL A12 50 μg/ml
  IFNγ Levels in Splenocyte Culture: 80 ± 52 pg/mL
[2]; mice gavaged with 50 μg CII263-270, splenocytes cultured with CII263-270 50 μg/ml
  IFNγ Levels in Splenocyte Culture: 124 ± 84 pg/mL
[2]; mice gavaged with PBS, splenocytes cultured with CII263-270 50 μg/ml
  IFNγ Levels in Splenocyte Culture: 280 ± 222 pg/mL
[3]; [5]
  II-10 Levels in Peyer's Patch Cultures: 15 pg/mL
  IL-17 Levels in Peyer's Patch Cultures: 11 pg/mL
[3]; [6]
  II-10 Levels in Peyer's Patch Cultures: 35 pg/mL
  IL-17 Levels in Peyer's Patch Cultures: 62 pg/mL
[3]; [7]
  II-10 Levels in Peyer's Patch Cultures: 15 pg/mL
  IL-17 Levels in Peyer's Patch Cultures: 256 pg/mL
[3]; [8]
  II-10 Levels in Peyer's Patch Cultures: 45 pg/mL
  IL-17 Levels in Peyer's Patch Cultures: 30 pg/mL

## SHLVEALALVAGERG [NBI-6024]
[4]
  PBMC ELISPOT responses to B(9-23) epitope and NBI-6024: induced, predominantly Th2 responses

B1: Ova: control antigen given intravenously in Table I (protein, UniProt P01012 2-386, looked up)
Ovalbumin: GSIGAASMEFCFDVFKELKVHHANENIFYCPIAIMSALAMVYLGAKDSTRTQINKVVRFDKLPGFGDSIEAQCGTSVNVHSSLRDILNQITKPNDVYSFSLASRLYAEERYPILPEYLQCVKELYRGGLEPINFQTAADQARELINSWVESQTNGIIRNVLQPSSVDSQTAMVLVNAIVFKGLWEKAFKDEDTQAMPFRVTEQESKPVQMMYQIGLFRVASMASEKMKILELPFASGTMSMLVLLPDEVSGLEQLESIINFEKLTEWTSSNVMEERKIKVYLPRMKMEEKYNLTSVLMAMGITDVFSSSANLSGISSAESLKISQAVHAAHAEINEAGREVVGSAEAGVDAASVSEEFRADHPFLFCIKHIATNAVLFFGRCVSP
DR1 Transgenic mice; 1 mg total i.v.
  Antibodies to CII: 42 ± 10
DR1 Transgenic mice; arthritis incidence, 1 mg total i.v. on days 10, 12, 14 after CII-immunization
  Incidence: 7/10
